“Also recorded” adds a separate entry of the source. Where two headings read alike, the source gives them in different places.
Tests used:
[1] = TRM-201-PK-101 safety: treatment-emergent adverse events; type: in vivo, human; settings: 25 mg, 101 study
From the text: Safety and tolerability will include monitoring and recording of AEs, clinical laboratory assessments (hematology, serum chemistry, and urinalysis), vital sign measurements, 12-lead ECG assessments, and physical examination findings.
A treatment-emergent AE (TEAE) is defined as any event not present before exposure to study drug or any event already present that worsens in either intensity or frequency after exposure to study drug.
All safety data will be summarized for the PILOT portion, MAIN study, and FOOD-EFFECT sub study combined. Subjects who received 2 single doses will be counted once with all of their safety data combined. The incidence of adverse events will be presented by the MedDRA system organ class and preferred term, relationship to the test article, and severity. Descriptive statistics of clinical laboratory results and vital signs will be presented, as well as summaries of changes from baseline (from the Check-in visit(s)) and of clinically notable values.
All AE data will be presented in a data listing by study part and within the FOOD-EFFECT sub study by treatment sequence. TEAEs will be summarized overall, as well as by severity and relationship to study drug. Serious AEs and AEs leading to discontinuation of study drug will also be presented in the data listings and summarized.

[2] = 101 and 102 PK studies combined (fasted); type: in vivo; settings: human, plasma, oral; for half-life: read-out: median t1/2 (converted)
From the text: The primary analysis model for data from this trial included data from this trial and that from the 25-mg dose from TRM-201-PK-101 (fasted results only), which were combined via mixed model repeated measures analysis (MMRM) in order to maximize the precision of the estimates. An MMRM analysis on natural log scale was simulated for the 25-mg dose (N=50) data using the between-subject SD of 0.31 from TRM-201-PK-101 and for the estimated 25-mg and 20-mg data that N=20 subjects were expected to yield in this study. The purpose of this simulation was to estimate the SD for the least squares natural log scale mean for the 20-mg dose. […] The subject effect data expected for this study was simulated from the back-calculated variance of the between-subject mean effect (Var (between-subject-mean)=SDbetween^2−SDwithin^2). For the maximum between- and within-SB's 0.31 and 0.12, 1000 simulations yielded an effective SD of 0.21 for the least squares mean of 20 mg, which was used for the following power calculations.
The arithmetic mean AUC0-∞ for 12.5 mg of TRM-201 is 2010 ng·hr/mL. The geometric mean AUC0-∞ for 12.5 mg of TRM-201 is 1880 ng·hr/mL. The arithmetic mean AUC0-∞ for 17.5 mg of TRM-201 is 3290 ng·hr/mL. The geometric mean AUC0-∞ for 17.5 mg of TRM-201 is 3110 ng·hr/mL. The arithmetic mean AUC0-∞ for 20 mg of TRM-201 is 3750 ng·hr/mL. The geometric mean AUC0-∞ for 20 mg of TRM-201 is 3550 ng·hr/mL. The arithmetic mean AUC0-∞ for 25 mg of TRM-201 is 4810 ng·hr/mL. The geometric mean AUC0-∞ for 25 mg of TRM-201 is 4590 ng·hr/mL.
The median time at which the Cmax is observed (Tmax) for 12.5 mg of TRM-201 is 2.00 hours. The median Tmax for 17.5 mg of TRM-201 is 2.00 hours. The Tmax for 20 mg of TRM-201 is 2.00 hours.

[3] = target: cyclooxygenase-1 (COX-1) isoenzyme (Homo sapiens, UniProt P23219); settings: at therapeutic concentrations; listed as rofecoxib; cited from earlier work
[4] = TRM-201-PK-102 safety: treatment-emergent adverse events; type: in vivo, human
From the text: The timing and frequency of all safety assessments was listed in the schedule of events (Table 19). Safety and tolerability included monitoring and recording of AEs, clinical laboratory assessments (hematology, serum chemistry, and urinalysis), vital sign measurements, 12-lead ECG assessments, and physical examination findings. […] If clinical significance was noted, the result and reason for significance were documented. Any abnormal laboratory test results (hematology, clinical chemistry, or urinalysis) or other safety assessments (e.g., ECGs, vital sign measurements), including those that worsen from baseline, felt to be clinically significant in the medical and scientific judgment of the investigator were to be recorded as AEs or SAEs.
The investigator was responsible for reporting all AEs that were observed or reported during the study, regardless of their relationship to study drug or their clinical significance. If there was any doubt as to whether a clinical observation was an AE, the event was reported. An AE was defined as any untoward medical occurrence in a subject enrolled into this study regardless of its causal relationship to study drug. Subjects were instructed to contact the investigator at any time after enrollment if any symptoms developed. A treatment-emergent AE (TEAE) was defined as any event not present before exposure to study drug or any event already present that worsens in either intensity or frequency after exposure to study drug.
All safety data were summarized. The incidence of adverse events was presented by the MedDRA system organ class and preferred term, relationship to the test article, and severity. Descriptive statistics of clinical laboratory results and vital signs were presented, as well as summaries of changes from baseline (from the Check-in visit(s)) and of clinically notable values. All AE data were presented in a data listing TEAEs were summarized overall, as well as by severity and relationship to study drug. Serious AEs and AEs leading to discontinuation of study drug were also presented in the data listings and summarized. Actual values and changes from Baseline for clinical laboratory test results, vital sign measurements, and 12-lead ECG results were summarized at each time point using descriptive statistics (number of subjects, mean, SD, median, minimum, and maximum).

Chain of cyclooxygenase-1 (COX-1) isoenzyme (P23219 24-599): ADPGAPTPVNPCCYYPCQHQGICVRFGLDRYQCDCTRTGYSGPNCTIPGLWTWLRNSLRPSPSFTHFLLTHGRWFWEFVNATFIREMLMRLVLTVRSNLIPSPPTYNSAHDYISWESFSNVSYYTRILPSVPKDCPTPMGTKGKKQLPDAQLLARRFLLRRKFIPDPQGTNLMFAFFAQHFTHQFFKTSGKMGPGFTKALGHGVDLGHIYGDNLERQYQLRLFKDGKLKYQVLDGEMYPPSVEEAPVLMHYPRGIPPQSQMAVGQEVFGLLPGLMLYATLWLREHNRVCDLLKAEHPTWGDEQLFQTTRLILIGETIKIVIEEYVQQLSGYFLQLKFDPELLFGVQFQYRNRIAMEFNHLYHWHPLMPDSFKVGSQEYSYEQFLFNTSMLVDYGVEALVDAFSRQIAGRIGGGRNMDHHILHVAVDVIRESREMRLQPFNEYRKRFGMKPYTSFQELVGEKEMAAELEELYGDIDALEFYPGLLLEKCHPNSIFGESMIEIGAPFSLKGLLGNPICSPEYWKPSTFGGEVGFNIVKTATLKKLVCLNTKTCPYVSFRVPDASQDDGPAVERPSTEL

## CS(=O)(=O)c1ccc(C2=C(c3ccccc3)C(=O)OC2)cc1 [TRM-201, 4-[4-(methylsulfonyl)phenyl]-3-phenyl-2(5H)-furanone]
[1]
  serious TEAE or TEAE leading to discontinuation of the study: No subjects
  subjects observed with TEAEs: four
  subjects observed with TEAEs, share of the cohort: 7.5%
  subjects with TEAE related to treatment: 2 subjects
  subjects with TEAE related to treatment, share of the cohort: 3.8%
[2]; 12.5 mg, 101 and 102 studies (FIG. 47), read-out: arithmetic mean AUC0-∞
  AUC(0-inf): 2010 ng·h/mL
[2]; 12.5 mg, 101 and 102 studies (FIG. 47), read-out: arithmetic mean Cmax
  Cmax: 151 ng/mL
[2]; 12.5 mg, 101 and 102 studies (FIG. 47), read-out: geometric mean AUC0-∞
  AUC(0-inf): 1880 ng·h/mL
[2]; 12.5 mg, 101 and 102 studies (FIG. 47), read-out: geometric mean Cmax
  Cmax: 144 ng/mL
[2]; 12.5 mg
  half-life: 12 h
[2]; 17.5 mg, 101 and 102 studies (FIG. 47), read-out: arithmetic mean AUC0-∞
  AUC(0-inf): 3290 ng·h/mL
[2]; 17.5 mg, 101 and 102 studies (FIG. 47), read-out: arithmetic mean Cmax
  Cmax: 236 ng/mL
[2]; 17.5 mg, 101 and 102 studies (FIG. 47), read-out: geometric mean AUC0-∞
  AUC(0-inf): 3110 ng·h/mL
[2]; 17.5 mg, 101 and 102 studies (FIG. 47), read-out: geometric mean Cmax
  Cmax: 224 ng/mL
[2]; 17.5 mg, read-out: median Tmax
  Tmax: 2 h
[2]; 17.5 mg
  half-life: 11.7 h
[2]; 20 mg, 101 and 102 studies (FIG. 47), read-out: arithmetic mean AUC0-∞
  AUC(0-inf): 3750 ng·h/mL
[2]; 20 mg, 101 and 102 studies (FIG. 47), read-out: arithmetic mean Cmax
  Cmax: 277 ng/mL
[2]; 20 mg, 101 and 102 studies (FIG. 47), read-out: geometric mean AUC0-∞
  AUC(0-inf): 3550 ng·h/mL
[2]; 20 mg, 101 and 102 studies (FIG. 47), read-out: geometric mean Cmax
  Cmax: 259 ng/mL
[2]; 20 mg, read-out: Tmax
  Tmax: 2 h
[2]; 20 mg
  half-life: 12.2 h
[2]; 25 mg, 101 and 102 studies combined (FIG. 47), read-out: arithmetic mean AUC0-∞
  AUC(0-inf): 4810 ng·h/mL
[2]; 25 mg, 101 and 102 studies combined (FIG. 47), read-out: arithmetic mean Cmax
  Cmax: 336 ng/mL
[2]; 25 mg, 101 and 102 studies combined (FIG. 47), read-out: geometric mean AUC0-∞
  AUC(0-inf): 4590 ng·h/mL
[2]; 25 mg, 101 and 102 studies combined (FIG. 47), read-out: geometric mean Cmax
  Cmax: 325 ng/mL
[2]; 25 mg, 101 and 102 studies combined, read-out: Tmax
  Tmax: 2.5 h
[2]; 25 mg, 101 and 102 studies combined
  half-life: 11.6 h
[3]
  inhibition of COX-1: does not inhibit; also recorded: not cyclooxygenase 1 (COX-1)
[4]; 12.5 mg
  TEAE in preferred term: constipation
  subjects who exhibited a TEAE: One
[4]; 25 mg
  TEAE in preferred term: ear discomfort and headache
  subjects who exhibited a TEAE: two
[4]; 102 PK study
  severity of all reported TEAE: mild
[4]; 102 PK study, all doses
  related TEAE, serious TEAE, TEAE leading to study discontinuation, or severe TEAE: No subjects
  subjects who exhibited a TEAE, total: three
[4]; at any dosage
  incidence of TEAE leading to study discontinuation: no incidence
  incidence of related TEAE: no incidence
  incidence of serious TEAE: no incidence
